The results in this text go back to ChEMBL document CHEMBL5523725, “Fragment-Based Anti-inflammatory Agent Design and Target Identification: Discovery of AF-45 as an IRAK4 Inhibitor to Treat Ulcerative Colitis and Acute Lung Injury” (J Med Chem, 2024).

For data set [1], the system named is RAW264.7. The data set can be described thus: Inhibition of NFkappaB/MAPK signaling pathway in mouse RAW264.7 cells assessed as reduction in LPS-induced p38 phosphorylation at 50 uM by Western blot analysis. Format: cell-based. (Immunoblotting shows a protein as a band on a membrane.)
The test system of data set [2] is Mus musculus. The data set can be described thus: Antiinflammatory activity in male C57BL/6 mouse model of DSS-induced ulcerative colitis assessed as restoration of protein status at 10 mg/kg, po administered for 11 days with subsequent administration of DSS for 8 days by H and E staining based analysis. Format: functional, organism-based. The note with it: time 11.0 day.

Data set [3] can be described thus: Half life in po dosed rat. Format: ADME, organism-based. The note with it: in vivo.
In data set [4] the target is T1, Interleukin-1 receptor-associated kinase 4 (Mus musculus) (UniProt Q8R4K2).
T1 sequence (whole entry): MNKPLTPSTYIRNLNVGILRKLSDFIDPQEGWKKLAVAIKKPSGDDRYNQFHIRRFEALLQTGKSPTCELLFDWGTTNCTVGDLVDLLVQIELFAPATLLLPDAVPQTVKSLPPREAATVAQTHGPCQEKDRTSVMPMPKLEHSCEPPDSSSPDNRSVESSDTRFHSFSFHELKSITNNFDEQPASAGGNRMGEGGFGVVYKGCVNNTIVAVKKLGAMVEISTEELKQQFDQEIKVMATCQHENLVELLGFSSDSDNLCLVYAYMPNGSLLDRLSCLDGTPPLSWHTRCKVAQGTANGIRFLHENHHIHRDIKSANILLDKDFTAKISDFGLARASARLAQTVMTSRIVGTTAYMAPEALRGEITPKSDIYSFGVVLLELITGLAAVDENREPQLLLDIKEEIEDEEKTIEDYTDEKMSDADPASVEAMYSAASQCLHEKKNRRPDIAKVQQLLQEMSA
Kind of data set: Thermal stabilization of IRAK4 in mouse RAW264.7 cells at 10 uM measured after 4 hrs by CETSA. The format is cell-based.

For data set [5], the system named is Mus musculus. The data set can be described thus: Antiinflammatory activity in male C57BL/6 mouse model of DSS-induced ulcerative colitis assessed as preservation of goblet cells at 10 mg/kg, po administered for 11 days with subsequent administration of DSS for 8 days by H and E staining based analysis. Format: functional, organism-based. The note with it: time 11.0 day.

For data set [6], the system named is RAW264.7. Kind of data set: Inhibition of NFkappaB/MAPK signaling pathway in mouse RAW264.7 cells assessed as reduction in LPS-induced JNK phosphorylation at 50 uM by Western blot analysis. The format is cell-based.
For data set [7], the system named is RAW264.7. The data set can be described thus: Inhibition of NFkappaB/MAPK signaling pathway in mouse RAW264.7 cells assessed as reduction in LPS-induced p65 phosphorylation at 50 uM by Western blot analysis. The format is cell-based.
The subject of data set [8] is Mus musculus. The data set can be described thus: Antiinflammatory activity in male C57BL/6 mouse model of DSS-induced ulcerative colitis assessed as reduction in colonic structure destruction at 10 mg/kg, po administered for 11 days with subsequent administration of DSS for 8 days by H and E staining based analysis. The conditions noted are these: time 11.0 day. The format is functional, organism-based.

The test system of data set [9] is Mus musculus. Kind of data set: Antiinflammatory activity in male C57BL/6 mouse model of DSS-induced ulcerative colitis assessed as reduction in spleen to body weight ratio at 10 mg/kg, po administered for 11 days with subsequent administration of DSS for 8 days. The note with it: time 11.0 day. Format: functional, organism-based.
Data set [10] relates to Mus musculus. The data set can be described thus: Antiinflammatory activity in male C57BL/6 mouse model of DSS-induced ulcerative colitis assessed as reduction in macrophage infiltration in colon at 10 mg/kg, po administered for 11 days with subsequent administration of DSS for 8 days by F4/80 labeling based immunohistochemistry analysis. The format is functional, organism-based. The conditions noted are these: time 11.0 day.

In data set [11] the test system is Mus musculus. The data set can be described thus: Antiinflammatory activity in male C57BL/6 mouse model of DSS-induced ulcerative colitis assessed as reduction in macrophage infiltration in spleen at 10 mg/kg, po administered for 11 days with subsequent administration of DSS for 8 days by F4/80 labeling based immunohistochemistry analysis. The format is functional, organism-based. The note with it: time 11.0 day.

Data set [12] deals with Mus musculus. Kind of data set: Antiinflammatory activity in male C57BL/6 mouse model of DSS-induced ulcerative colitis assessed as reduction in IL-6 level in serum at 10 mg/kg, po administered for 11 days with subsequent administration of DSS for 8 days by ELISA. The format is functional, organism-based. The conditions noted are these: time 11.0 day. For orientation: ELISA stands for enzyme-linked immunosorbent assay.

The test system of data set [13] is RAW264.7. The data set can be described thus: Inhibition of NFkappaB/MAPK signaling pathway in mouse RAW264.7 cells assessed as reduction in LPS-induced IkappaBalpha degradation at 50 uM by Western blot analysis. The format is cell-based.
Data set [14] has as its system Mus musculus. The data set can be described thus: Antiinflammatory activity in male C57BL/6 mouse model of DSS-induced ulcerative colitis assessed as reduction in TNF-alpha level in serum at 10 mg/kg, po administered for 11 days with subsequent administration of DSS for 8 days by ELISA. Format: functional, organism-based. The note with it: time 11.0 day.
For data set [15], the system named is Mus musculus. The data set can be described thus: Anti-colitis activity in male C57BL/6 mouse model of DSS-induced ulcerative colitis assessed as colon length at 10 mg/kg, po administered for 11 days with subsequent administration of DSS for 8 days (reference value: 5.2 cm). The note with it: time 11 day. Format: functional.
The test system of data set [16] is Mus musculus. Kind of data set: In vivo binding affinity to IRAK4 in DSS-induced ulcerative colitis C57BL/6 mouse colon assessed as thermal stabilization at 10 mg/kg, po administered for 11 days with subsequent administration of DSS for 8 days by CETSA. The format is functional, organism-based. The conditions noted are these: time 11.0 day.

The source made the active and inactive calls.

For the compound `CC[C@@H]1[C@H](F)C(=O)N[C@@H]1COc1nccc2cc(C(N)=O)c(OC)cc12` [ZIMLOVISERTIB], the inhibition entry in data set [1], in data set [6], in data set [7] and in [13] was “Active” each time. For the same compound, the result in data set [2], in data set [4], in [5], in [8], in data set [9] and in data set [10] was Active. The result in data set [11], in [12] and in data set [14] was Active. In addition, the half-life (commonly the time needed for the level to fall by half in the phase considered) in data set [3] is 2.8 h. For the same compound, the Activity in data set [15] stood at 5.5 cm. Moreover, the result in [16] was inactive.
